The values that follow come from patent US20070099915A1, “INHIBITORS OF THE HIV INTEGRASE ENZYME” (PFIZER INC., priority 2005, published 2007).

For experiment [1], the system named is HIV-1 RF virus in CEM-SS cells. Briefly: HIV-1 cell protection assay (XTT dye reduction). In kind it is cell-based. Conditions: Human immunodeficiency virus 1, 144 h; RF strain of HIV-1, CEM-SS cells, XTT read-out after six days; read-out: EC50. An outline of the steps:
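Infected CEM-SS cultures incubated six days, then XTT with phenazine methosulfate added for 4 h; viability read as formazan absorbance at 450 nm. Formazan expressed as percent of uninfected, compound-free cells; CC50 from uninfected treated cells, therapeutic index as CC50/EC50.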
Background: Tetrazolium dyes change colour on reduction, which living cells bring about.

In experiment [2] the target is T1, Full-length wild type HIV-1 integrase (SF1) (Human immunodeficiency virus type 1 group M subtype B, UniProt P04585).
T1 construct: made in house; host or cells: E. coli BL21 (DE3)
Briefly: Integrase strand-transfer scintillation proximity assay. The format is biochemical. The settings on record: strand-transfer SPA, 246 nM integrase, 50 nM host DNA, 37° C., 50 min; read-out: IC50. (In a scintillation proximity assay essentially only radioactivity close to the scintillant gives light.)

In general, EC50 refers to the concentration at which the effect is half-maximal. As a reminder, the IC50 is the concentration that gives 50% inhibition. In the case of `CCn1ccnc1CN(C)Cc1cn(Cc2ccc(F)cc2)c2cnc3c(c12)CCN(O)C3=O` [Example 70, 1-{[[(1-ethyl-1H-imidazol-2-yl)methyl](methyl)amino]methyl}-3-(4-fluorobenzyl)-7-hydroxy-3,7,8,9-tetrahydro-6H-pyrrolo[2 3-c]-1,7-naphthyridin-6-one], the EC50 in experiment [1] turned out to be 43 nM. For the same compound, the IC50 in experiment [2] was 22 nM.

Regarding `CCN(C)Cc1cn(Cc2ccc(F)cc2)c2cnc3c(c12)CCN(O)C3=O` [Example 71, 1-{[ethyl(methyl)amino]methyl}-3-(4-fluorobenzyl)-7-hydroxy-3,7,8,9-tetrahydro-6H-pyrrolo[2,3-c]-1,7-naphthyridin-6-one], in experiment [1], the EC50 worked out at 8 nM. Besides, the IC50 in experiment [2] was 27 nM.

With `O=C1c2ncc3c(c(CN4C[C@@H](F)[C@H](F)C4)cn3Cc3ccc(F)cc3)c2CCN1O` [Example 72, 1-{[(3R,4R)-3,4-difluoropyrrolidin-1-yl]methyl}-3-(4-fluorobenzyl)-7-hydroxy-3,7,8,9-tetrahydro-6H-pyrrolo[2,3-c]-1,7-naphthyridin-6-one], the EC50 in experiment [1] was determined as 0.5 nM. The IC50 in experiment [2] was found to be 9 nM.

As for `CN(Cc1cn(Cc2ccc(F)cc2)c2cnc3c(c12)CCN(O)C3=O)CC(F)(F)F` [Example 73, 3-(4-fluorobenzyl)-7-hydroxy-1-{[methyl(2,2,2-trifluoroethyl)amino]methyl}-3,7,8,9-tetrahydro-6H-pyrrolo[2,3-c]-1,7-naphthyridin-6-one], in experiment [1], the EC50 was 0.4 nM. Further, the IC50 in experiment [2] was found to be 7 nM.

Regarding `CCCOCCOCc1cn(Cc2ccc(F)cc2)c2cnc3c(c12)CCN(O)C3=O` [Example 75, 3-(4-fluorobenzyl)-7-hydroxy-1-[(2-propoxyethoxy)methyl]-3,7,8,9-tetrahydro-6H-pyrrolo[2,3-c]-1,7-naphthyridin-6-one], the EC50 in experiment [1] turned out to be 0.7 nM. Moreover, the IC50 in experiment [2] came out at 17 nM.

`Cc1cccc(COCc2cn(Cc3ccc(F)cc3)c3cnc4c(c23)CCN(O)C4=O)n1` [Example 78, 3-(4-fluorobenzyl)-7-hydroxy-1-{[(6-methylpyridin-2-yl)methoxy]methyl}-3,7,8,9-tetrahydro-6H-pyrrolo[2,3-c]-1,7-naphthyridin-6-one]: the concentration for a half-maximal effect (EC50) in experiment [1] stood at 0.6 nM. For the same compound, the IC50 in experiment [2] was found to be 11 nM.

As for `O=C1c2ncc3c(c(COCC4CCC4)cn3Cc3ccc(F)cc3)c2CCN1O` [Example 79, 1-[(cyclobutylmethoxy)methyl]-3-(4-fluorobenzyl)-7-hydroxy-3,7,8,9-tetrahydro-6H-pyrrolo[2,3-c]-1,7-naphthyridin-6-one], the EC50 in experiment [1] worked out at 1 nM. In addition, in experiment [2], the IC50 was determined as 10 nM.

In the case of `CC(C)N(CCOCc1cn(Cc2ccc(F)cc2)c2cnc3c(c12)CCN(O)C3=O)C(C)C` [Example 80, 1-{[2-(diisopropylamino)ethoxy]methyl}-3-(4-fluorobenzyl)-7-hydroxy-3,7,8,9-tetrahydro-6H-pyrrolo[2,3-c]-1,7-naphthyridin-6-one], in experiment [1], the EC50 worked out at 12 nM. Also, the IC50 in experiment [2] came to 23 nM.

Consider `O=C1c2ncc3c(c(CNCC(F)F)cn3Cc3ccc(F)cc3)c2CCN1O` [Example 81, 1-{[(2,2-difluoroethyl)amino]methyl}-3-(4-fluorobenzyl)-7-hydroxy-3,7,8,9-tetrahydro-6H-pyrrolo[2,3-c]-1,7-naphthyridin-6-one], for which, in experiment [1], the EC50 was 0.32 nM. Further, the IC50 in experiment [2] stood at 8 nM.

In the case of `CCCCOCCOCc1cn(Cc2ccc(F)cc2)c2cnc3c(=O)n(O)ccc3c12` [Example 82, 1-[(2-butoxyethoxy)methyl]-3-(4-fluorobenzyl)-7-hydroxy-3,7-dihydro-6H-pyrrolo[2,3-c]-1,7-naphthyridin-6-one], the EC50 in experiment [1] came out at 0.37 nM. The IC50 in experiment [2] stood at 10 nM.

On to `N#Cc1ccccc1Cn1ccc2c3c(ncc21)C(=O)N(O)CC3` [Example 84, 2-[(7-hydroxy-6-oxo-6,7,8,9-tetrahydro-3H-pyrrolo[2,3-c]-1,7-naphthyridin-3-yl)methyl]benzonitrile], for which the EC50 in experiment [1] was determined as 32 nM. Besides, the IC50 in experiment [2] was determined as 125 nM.

`N#Cc1cccc(Cn2ccc3c4c(ncc32)C(=O)N(O)CC4)c1` [Example 85, 3-[(7-hydroxy-6-oxo-6,7,8,9-tetrahydro-3H-pyrrolo[2,3c]1,7-naphthyridin-3-yl)methyl]benzonitrile]: the EC50 in experiment [1] came to 460 nM. Besides, the IC50 in experiment [2] worked out at 558 nM.

For the compound `N#Cc1ccc(Cn2ccc3c4c(ncc32)C(=O)N(O)CC4)cc1` [Example 86, 4-[(7-hydroxy-6-oxo-6,7,8,9-tetrahydro-3H-pyrrolo[2,3-c]-1,7-naphthyridin-3-yl)methyl]benzonitrile], the EC50 in experiment [1] turned out to be 27 nM. Besides, the IC50 in experiment [2] turned out to be 108 nM.

`O=C1c2ncc3c(ccn3Cc3ccccn3)c2CCN1O` [Example 87, 7-hydroxy-3-(pyridin-2-ylmethyl)-3,7,8,9-tetrahydro-6H-pyrrolo[2,3-c]-1,7-naphthyridin-6-one]: the EC50 in experiment [1] is 35 nM. Moreover, the IC50 in experiment [2] turned out to be 89 nM.

In the case of `N#Cc1cc(Cn2ccc3c4c(ncc32)C(=O)N(O)CC4)ccc1F` [Example 88, 2-fluoro-5-[(7-hydroxy-6-oxo-6,7,8,9-tetrahydro-3H-pyrrolo[2,3-c]-1,7-naphthyridin-3-yl)methyl]benzonitrile], the EC50 in experiment [1] is 0.45 nM. The IC50 in experiment [2] is 9 nM.

Consider `O=c1c2ncc3c(c(COCC4CCC4)cn3Cc3ccc(F)cc3)c2ccn1O` [Example 90, 1-[(cyclobutylmethoxy)methyl]-3-(4-fluorobenzyl)-7-hydroxy-3,7-dihydro-6H-pyrrolo[23-c]-17-naphthyridin-6-one], for which, in experiment [1], the EC50 was found to be 14 nM. Also, the IC50 in experiment [2] came out at 59 nM.

In the case of `O=c1c2ncc3c(c(COCCOCc4ccccc4)cn3Cc3ccc(F)cc3)c2ccn1O` [Example 92, 1-{[2-(benzyloxy)ethoxy]methyl}-3-(4-fluorobenzyl)-7-hydroxy-3,7-dihydro-6H-pyrrolo[2,3-c]-1,7-naphthyridin-6-one], in experiment [1], the EC50 worked out at 10 nM. Further, in experiment [2], the IC50 was 3 nM.

With `COCCCc1cn(Cc2ccc(F)cc2)c2cnc3c(c12)CCN(O)C3=O` [Example 94, 3-(4-fluorobenzyl)-7-hydroxy-1-(3-methoxypropyl)-3,7,8,9-tetrahydro-6H-pyrrolo[2,3-c]-1,7-naphthyridin-6-one], in experiment [1], the EC50 turned out to be 0.25 nM. In addition, the IC50 in experiment [2] is 12 nM.

For the compound `Cc1cc2c(ncc3c2c(CN2CCN(C)CC2)cn3Cc2ccc(F)cc2)c(=O)n1O` [Example 95, 3-(4-fluorobenzyl)-7-hydroxy-8-methyl-1-[(4-methylpiperazin-1-yl)methyl]3,7-dihydro-6H-pyrrolo[2,3-c]-1,7-naphthyridin-6-one], the EC50 in experiment [1] stood at 0.45 nM. In addition, the IC50 in experiment [2] came out at 14 nM.

Turning to `Cc1cc2c(ncc3c2c(CN2CCN(C)C(=O)C2)cn3Cc2ccc(F)cc2)c(=O)n1O` [Example 96, 3-(4-fluorobenzyl)-7-hydroxy-8-methyl-1-[(4-methyl-3-oxopiperazin-1-yl)methyl]-3,7-dihydro-6H-pyrrolo[2,3-c]-1,7-naphthyridin-6-one], in experiment [1], the EC50 was 5 nM. Also, the IC50 in experiment [2] amounted to 10 nM.

As for `CCCN(CCO)Cc1cn(Cc2ccc(F)cc2)c2cnc3c(=O)n(O)c(C)cc3c12` [Example 97, 3-(4-fluorobenzyl)-7-hydroxy-1-{[(2-hydroxyethyl)(propyl)amino]methyl}-8-methyl-3,7-dihydro-6H-pyrrolo[2,3-c]-1,7-naphthyridin-6-one], the EC50 in experiment [1] came to 0.69 nM. In experiment [2], the IC50 turned out to be 17 nM.

Regarding `O=C1c2ncc3c(c(CN4CCCCCC4)cn3Cc3ccc(F)cc3)c2CCN1O` [Example 98, 1-(azepan-1-ylmethyl)-3-(4-fluorobenzyl)-7-hydroxy-3,7,8,9-tetrahydro-6H-pyrrolo[2,3-c]-1,7-naphthyridin-6-one], the EC50 in experiment [1] worked out at 13 nM. In experiment [2], the IC50 came out at 38 nM.

Consider `CC(=O)C1CCN(Cc2cn(Cc3ccc(F)cc3)c3cnc4c(c23)CCN(O)C4=O)CC1` [Example 99, 1-[(4-acetylpiperidin-1-yl)methyl]-3-(4-fluorobenzyl)-7-hydroxy-3,7,8,9-tetrahydro-6H-pyrrolo[2,3-c]-1,7-naphthyridin-6-one], for which the EC50 in experiment [1] is 5 nM. The IC50 in experiment [2] was determined as 22 nM.

As for `COC1CCN(Cc2cn(Cc3ccc(F)cc3)c3cnc4c(c23)CCN(O)C4=O)CC1` [Example 100, 3-(4-fluorobenzyl)-7-hydroxy-1-[(4-methoxypiperidin-1-yl)methyl]-3,7,8,9-tetrahydro-6H-pyrrolo[2,3-c]-1,7-naphthyridin-6-one], in experiment [1], the EC50 is 0.7 nM. Moreover, the IC50 in experiment [2] amounted to 21 nM.

Take `Cc1cc2c(ncc3c2c(CN2CCCCC2)cn3Cc2ccc(F)cc2)c(=O)n1O` [Example 101, 3-(4-fluorobenzyl)-7-hydroxy-8-methyl-1-(piperidin-1-ylmethyl)-3,7-dihydro-6H-pyrrolo[2,3-c]-1,7-naphthyridin-6-one]: in experiment [1], the EC50 came out at 0.46 nM. Moreover, in experiment [2], the IC50 came out at 14 nM.

For the compound `COCCN(C)Cc1cn(Cc2ccc(F)cc2)c2cnc3c(=O)n(O)c(C)cc3c12` [Example 102, 3-(4-fluorobenzyl)-7-hydroxy-1-{[(2-methoxyethyl)(methyl)amino]methyl}-8-methyl-3,7-dihydro-6H-pyrrolo[2,3-c]-1,7-naphthyridin-6-one], the EC50 in experiment [1] was 0.25 nM. Moreover, the IC50 in experiment [2] was determined as 13 nM.

For the compound `O=C1c2ncc3c(c(CCN4CCCC4)cn3Cc3ccc(F)cc3)c2CCN1O` [Example 103, 3-(4-fluorobenzyl)-7-hydroxy-1-(2-(pyrrolidin-1-yl)ethyl)-8,9-dihydro-3H-pyrrolo[2,3-c][1,7]naphthyridin-6(7H)-one], the EC50 in experiment [1] was 18 nM. Also, the IC50 in experiment [2] was 24 nM.
